Measurements taken from paper PMC10666275 (ACS Omega, 2023).
Converted amounts (≈) assume the structure as drawn. “Also recorded” adds a separate entry of the source.

What was measured:
[1] = tested on: MRSA; assay: Agar diffusion method, inhibition zones, MRSA; assay type: cell-based, methicillin-resistant Staphylococcus aureus; conditions: Staphylococcus aureus, 24 h, read-out: IZ (inhibition zone)
[2] = target: T1, dihydrofolate reductase (DHFR) enzyme (Homo sapiens, UniProt P00374); assay: In vitro DHFR inhibition assay; assay type: biochemical
T1 sequence (P00374 1-187): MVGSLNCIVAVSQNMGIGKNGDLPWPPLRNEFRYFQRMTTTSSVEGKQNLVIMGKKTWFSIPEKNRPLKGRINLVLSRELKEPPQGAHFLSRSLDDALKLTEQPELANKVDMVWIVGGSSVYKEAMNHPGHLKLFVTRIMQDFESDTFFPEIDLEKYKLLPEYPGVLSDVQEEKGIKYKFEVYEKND

[3] = tested on: P. aeruginosa; assay: Agar diffusion method, inhibition zones, P. aeruginosa; assay type: cell-based, Pseudomonas aeruginosa; conditions: 24 h; for zone of inhibition at 10000 µg/mL: Pseudomonas aeruginosa, read-out: IZ (inhibition zone); for IZ (inhibition zone): P. aeruginosa, agar well diffusion, 100 μL of 10 mg/mL in DMSO, 37 °C
[4] = tested on: P. aeruginosa; assay: Resazurin-based 96-well plate microdilution MIC, P. aeruginosa; assay type: cell-based; conditions: Pseudomonas aeruginosa, 24 h
[5] = tested on: MRSA; assay: Resazurin-based 96-well plate microdilution MIC, MRSA; assay type: cell-based, methicillin-resistant Staphylococcus aureus; conditions: Staphylococcus aureus, 24 h
[6] = tested on: MRSA-induced keratitis; assay: MRSA-induced keratitis in rats; assay type: in vivo, rat (Sprague–Dawley)

Row | SMILES | zone of inhibition at 10000 µg/mL [1] [mm] | IC50 [2] [µM] | zone of inhibition at 10000 µg/mL [3] [mm] | IZ (inhibition zone) [3] | MIC [4] [µM] | MIC [5] [µM] | area % of corneal opacity (infection intensity) ([6]; 5c dispersion, versus MRSA group) | inflammation score ([6]; H&E cornea, score 0-4, versus MRSA group) | corneal inflammation, histological evaluation (H&E) ([6]; MRSA/5c dispersion group compared to MRSA group)
1 | COc1cc(C(=O)/C=C\c2cn(-c3ccccc3)nc2-c2ccccc2)cc(OC)c1OC [compound 4, (Z)-3-(1,3-Diphenyl-1H-pyrazol-4-yl)-1-(3,4,5-trimethoxyphenyl)prop-2-en-1-one] | 17 | 5 ± 0.23 | 15 | – | – | – | – | – | –
2 | COc1cc(C2=NN(C(C)=O)C(c3cn(-c4ccccc4)nc3-c3ccccc3)C2)cc(OC)c1OC (stereo not drawn) [compound 7, 1-(1′,3′-Diphenyl-5-(3,4,5-trimethoxyphenyl)-3,4-dihydro-1′H,2H-[3,4′-bipyrazol]-2-yl)ethan-1-one] | 11 | 6.7 ± 0.31 | 0 | no detectable activity | – | – | – | – | –
3 | COc1cc(-c2cc(-c3cn(-c4ccccc4)nc3-c3ccccc3)[nH]c(=S)n2)cc(OC)c1OC [compound 5b, 6-(1,3-Diphenyl-1H-pyrazol-4-yl)-4-(3,4,5-trimethoxyphenyl)pyrimidine-2(1H)-thione] | 23 | 4.1 ± 0.19 | 20 | – | 4030 (≈ 2000 µg/mL) | 1010 (≈ 500 µg/mL) | – | – | –
4 | COc1cc(C2=NN(c3ccccc3)C(c3cn(-c4ccccc4)nc3-c3ccccc3)C2)cc(OC)c1OC (stereo not drawn) [compound 6b, 1′,2,3′-Triphenyl-5-(3,4,5-trimethoxyphenyl)-3,4-dihydro-1′H,2H-3,4′-bipyrazole] | 6 | 6.45 ± 0.31 | 0 | no detectable activity | – | – | – | – | –
5 | COc1cc(C2=NNC(c3cn(-c4ccccc4)nc3-c3ccccc3)C2)cc(OC)c1OC (stereo not drawn) [compound 6a, 1′,3′-Diphenyl-5-(3,4,5-trimethoxyphenyl)-3,4-dihydro-1′H,2H-3,4′-bipyrazole] | 15 | 5.56 ± 0.27 | 6 | – | – | – | – | – | –
6 | COc1cc(-c2cc(-c3cn(-c4ccccc4)nc3-c3ccccc3)[nH]c(=N)n2)cc(OC)c1OC [compound 5c, 6-(1,3-Diphenyl-1H-pyrazol-4-yl)-4-(3,4,5-trimethoxyphenyl)pyrimidine-2(1H)-imine] | 28 | 4 ± 0.18 | 24 | – | 2080 (≈ 1000 µg/mL) | 521 (≈ 250 µg/mL) | significantly (P < 0.0001) reduced infection in rats; also recorded: significant reduction in the area % of corneal opacity | significant decrease in inflammation score | mild to moderate inflammatory cell infiltration
7 | C[C@H]1COc2c(N3CCN(C)CC3)c(F)cc3c(=O)c(C(=O)O)cn1c23 [levofloxacin, reference compound] | 31 | – | 27 | – | 1380 (≈ 500 µg/mL) | 346 (≈ 125 µg/mL) | – | – | –
8 | COc1cc(-c2cc(-c3cn(-c4ccccc4)nc3-c3ccccc3)[nH]c(=O)n2)cc(OC)c1OC [compound 5a, 6-(1,3-Diphenyl-1H-pyrazol-4-yl)-4-(3,4,5-trimethoxyphenyl)pyrimidine-2(1H)-one] | 25 | 4.2 ± 0.2 | 22 | – | 8320 (≈ 4000 µg/mL) | 2080 (≈ 1000 µg/mL) | – | – | –
